Earlier results in patent publication US8211842B2, “Preventive and/or curative agent for cleaning materials that are brought into contact with water” (priority 2006, dated 2012).

How the values were obtained:
Conditions in all cases: standard AFNOR NF T 72-151
[1] = system: Mycobactenum smegmatis 7326
[2] = system: Streptococcus faecalis 5855
Escherichia coli 54127 = system: Escherichia coli 54127
[3] = system: Staphylococcus aureus 53164
[4] = system: Pseudomonas aeruginosa A22

Measured: dose effective as a bactericide

CCCCCCCCCC[N+](C)(C)CCCCCCCCCC.[Cl-] [didecyl dimethylammonium chloride]
50 ppm: all assays above
